{"source": "patent US5270334A", "about": "“4-methoxy-5-methyl-pyran-3-ol natural products and derivatives thereof” (E. R. Squibb & Sons, Inc., priority 1992, dated 1993)", "key": {"Epidermophyton floccosum [1]": {"system": "Epidermophyton floccosum", "test": "Antibacterial and antifungal activity of lanomycin, agar dilution assay (Table 4)", "format": "cell-based", "experimental": "(§1) *Minimal inhibitory concentrations were determined by agar dilution assay\n(§2) **Higher value is based on hazy growth; lower value for clearly"}, "Microsporum canis [2]": {"system": "Microsporum canis", "test": "Antibacterial and antifungal activity of lanomycin, agar dilution assay (Table 4)", "format": "cell-based", "experimental": "as §1, §2"}, "dermatophytes": {"system": "dermatophytes", "test": "antifungal activity of lanomycin", "format": "cell-based", "settings": "in words", "experimental": "as §1\n(§3) MICs were determined as in Table 5 except that the inoculum was 10^3 cfu."}, "Trichophyton rubrum [3]": {"system": "Trichophyton rubrum", "test": "Activity of lanomycin against filamentous fungi, agar dilution (Table 6)", "format": "cell-based", "settings": "SC9199; Trichophyton rubrum SC 9199; 10^3 cfu", "experimental": "(§4) MICs were determined by the agar dilution method using a medium composed of tryptone (5 g), malt extract (3 g), glucose (10 g) and yeast extract (3 g) in 1 L distiled water; 10^4 cfu of the test organism was applied to the agar.\nas §3"}, "[4]": {"system": "Trichophyton mentagrophytes", "test": "Activity of lanomycin against filamentous fungi, agar dilution (Table 6)", "format": "cell-based", "settings": "SC2637; Trichophyton mentagrophytes SC 2637; 10^3 cfu", "experimental": "as §4, §3"}, "Epidermophyton floccosum [5]": {"system": "Epidermophyton floccosum", "test": "Activity of lanomycin against filamentous fungi, agar dilution (Table 6)", "format": "cell-based", "settings": "SC9185; Epidermophyton floccosum SC 9185; 10^3 cfu", "experimental": "as §4, §3"}, "Microsporum canis [6]": {"system": "Microsporum canis", "test": "Activity of lanomycin against filamentous fungi, agar dilution (Table 6)", "format": "cell-based", "settings": "SC9237; Microsporum canis SC 9237; 10^3 cfu", "experimental": "as §4, §3"}, "Aspergillus fumigatus [7]": {"system": "Aspergillus fumigatus", "test": "Activity of lanomycin against filamentous fungi, agar dilution (Table 6)", "format": "cell-based", "experimental": "as §4, §3"}, "Trichophyton rubrum [8]": {"system": "Trichophyton rubrum", "test": "Antibacterial and antifungal activity of lanomycin, agar dilution assay (Table 4)", "format": "cell-based", "settings": "SC9199, Trichophyton rubrum SC 9199", "experimental": "as §1"}, "Klebsiella aerogenes": {"system": "Klebsiella aerogenes", "test": "Antibacterial and antifungal activity of lanomycin, agar dilution assay (Table 4)", "format": "cell-based", "settings": "SC10440; Klebsiella aerogenes SC 10440", "experimental": "as §1"}, "Candida albicans": {"system": "Candida albicans", "test": "Antibacterial and antifungal activity of lanomycin, agar dilution assay (Table 4)", "format": "cell-based", "experimental": "as §1"}, "Candida guillermondii": {"system": "Candida guillermondii", "test": "Antibacterial and antifungal activity of lanomycin, agar dilution assay (Table 4)", "format": "cell-based", "settings": "SC2996, Candida guillermondii SC 2996", "experimental": "as §1"}, "Enterococcus faecalis": {"system": "Enterococcus faecalis", "test": "Antibacterial and antifungal activity of lanomycin, agar dilution assay (Table 4)", "format": "cell-based", "settings": "SC9011; Enterococcus faecalis SC 9011", "experimental": "as §1"}, "Staphylococcus aureus": {"system": "Staphylococcus aureus", "test": "Antibacterial and antifungal activity of lanomycin, agar dilution assay (Table 4)", "format": "cell-based", "experimental": "as §1"}, "Proteus mirabilis": {"system": "Proteus mirabilis", "test": "Antibacterial and antifungal activity of lanomycin, agar dilution assay (Table 4)", "format": "cell-based", "settings": "SC3855; Proteus mirabilis SC 3855", "experimental": "as §1"}, "Candida tropicalis": {"system": "Candida tropicalis", "test": "Antibacterial and antifungal activity of lanomycin, agar dilution assay (Table 4)", "format": "cell-based", "settings": "SC2963, Candida tropicalis SC 2963", "experimental": "as §1"}, "[9]": {"system": "Trichophyton mentagrophytes", "test": "Antibacterial and antifungal activity of lanomycin, agar dilution assay (Table 4)", "format": "cell-based", "settings": "SC2637, Trichophyton mentagrophytes SC 2637", "experimental": "as §1"}, "Micrococcus luteus": {"system": "Micrococcus luteus", "test": "Antibacterial and antifungal activity of lanomycin, agar dilution assay (Table 4)", "format": "cell-based", "settings": "SC2495; Micrococcus luteus SC 2495", "experimental": "as §1"}, "Escherichia coli": {"system": "Escherichia coli", "test": "Antibacterial and antifungal activity of lanomycin, agar dilution assay (Table 4)", "format": "cell-based", "settings": "SC8294; Escherichia coli SC 8294", "experimental": "as §1"}, "Aspergillus fumigatus [10]": {"system": "Aspergillus fumigatus", "test": "Antibacterial and antifungal activity of lanomycin, agar dilution assay (Table 4)", "format": "cell-based", "settings": "SC2100, Aspergillus fumigatus SC 2100", "experimental": "as §1"}, "Pseudomonas aeruginosa": {"system": "Pseudomonas aeruginosa", "test": "Antibacterial and antifungal activity of lanomycin, agar dilution assay (Table 4)", "format": "cell-based", "settings": "SC8329; Pseudomonas aeruginosa SC 8329", "experimental": "as §1"}, "lanosterol demethylase": {"molecular_target": "T1, lanosterol demethylase (Candida albicans, UniProt P10613)", "T1 construct": "endogenous in cells; host or cells: Candida albicans SGY677", "T1 sequence (P10613 whole entry)": "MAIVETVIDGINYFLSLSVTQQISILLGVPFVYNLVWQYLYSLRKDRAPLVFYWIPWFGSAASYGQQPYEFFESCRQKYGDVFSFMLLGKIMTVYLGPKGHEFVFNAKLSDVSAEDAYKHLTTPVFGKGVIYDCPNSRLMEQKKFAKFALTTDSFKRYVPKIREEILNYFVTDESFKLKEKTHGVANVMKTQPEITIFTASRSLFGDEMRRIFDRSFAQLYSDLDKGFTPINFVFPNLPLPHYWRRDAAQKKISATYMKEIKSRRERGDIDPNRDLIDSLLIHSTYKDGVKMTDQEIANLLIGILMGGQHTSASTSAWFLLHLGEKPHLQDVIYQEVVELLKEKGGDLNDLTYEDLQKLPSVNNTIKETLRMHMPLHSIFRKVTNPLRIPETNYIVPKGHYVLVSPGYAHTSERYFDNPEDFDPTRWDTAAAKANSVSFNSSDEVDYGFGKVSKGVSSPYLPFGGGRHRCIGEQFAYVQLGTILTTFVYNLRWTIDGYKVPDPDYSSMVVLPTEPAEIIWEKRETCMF", "test": "inhibition of lanosterol demethylase, spectrophotometric carbon monoxide binding assay", "settings": "Candida albicans SGY677; read-out: concentration which gives 50% inhibition of carbon monoxide binding", "experimental": "The inhibition of lanosterol demethylase was determined by two methods: the spectrophotometric carbon monoxide binding assay of Omura and Sato (J. Biol. Chem. 239:2370-2378, 1964) and by a radiolabeled metabolic assay.\nCells of Candida albicans, SGY677, were grown overnight without shaking at 30° C. in a medium consisting of yeast extract 1%, peptone 2%, glucose 2% and distilled water. Cells were harvested by centrifugation and resuspended in 0.65M mannitol to an optical density at 600 nm of 2.5. At this density 1 ml of cells was equal to 6.7 mg constant dry weight (105° C. for 18 hours).\nScopularin and its alcohol derivative of Example 4 were added to the enzyme and the inhibition of carbon monoxide binding determined over a range of inhibitor concentrations."}}, "data": [{"smiles": "C/C=C/C=C/C=C(\\C)[C@H]1OC[C@@H](C)[C@@H](OC)[C@@H]1OC(=O)CN", "note": "(relative stereo) [Lanomycin]", "values": [{"measurement": "MIC", "setting": "Epidermophyton floccosum [1]; SC9185, Epidermophyton floccosum SC 9185, higher value, based on hazy growth", "value": 100, "unit": "µg/mL"}, {"measurement": "MIC", "setting": "Epidermophyton floccosum [1]; SC9185, Epidermophyton floccosum SC 9185, lower value, clearly discernible growth", "value": 1.6, "unit": "µg/mL"}, {"measurement": "MIC", "setting": "Microsporum canis [2]; SC9237, Microsporum canis SC 9237, higher value, based on hazy growth", "value": 100, "unit": "µg/mL"}, {"measurement": "MIC", "setting": "Microsporum canis [2]; SC9237, Microsporum canis SC 9237, lower value, clearly discernible growth", "value": 1.6, "unit": "µg/mL"}, {"measurement": "activity against dermatophytes", "setting": "dermatophytes; Table 4", "value": "showed activity"}, {"measurement": "activity against dermatophytes", "setting": "dermatophytes; Table 6", "value": "active"}, {"measurement": "MIC", "setting": "Trichophyton rubrum [3]", "value": 1.6, "unit": "µg/mL"}, {"measurement": "MIC", "setting": "[4]", "value": 0.4, "unit": "µg/mL"}, {"measurement": "MIC", "setting": "Epidermophyton floccosum [5]", "value": 0.4, "unit": "µg/mL"}, {"measurement": "MIC", "setting": "Microsporum canis [6]", "value": 0.4, "unit": "µg/mL"}, {"measurement": "MIC", "setting": "Aspergillus fumigatus [7]; SC2100, Aspergillus fumigatus SC 2100, 10^3 cfu", "value": 100, "unit": "µg/mL"}, {"measurement": "activity against Aspergillus fumigatus", "setting": "Aspergillus fumigatus [7]; in words, Table 6", "value": "inactive"}, {"measurement": "MIC", "setting": "Trichophyton rubrum [8]", "value": 1.6, "unit": "µg/mL"}, {"measurement": "MIC", "setting": "Klebsiella aerogenes", "value": "> 100", "unit": "µg/mL"}, {"measurement": "MIC", "setting": "Candida albicans; SC5314, Candida albicans SC 5314", "value": "> 100", "unit": "µg/mL"}, {"measurement": "MIC", "setting": "Candida albicans; SC11422, Candida albicans SC 11422", "value": 100, "unit": "µg/mL"}, {"measurement": "MIC", "setting": "Candida guillermondii", "value": 1.6, "unit": "µg/mL"}, {"measurement": "MIC", "setting": "Enterococcus faecalis", "value": "> 100", "unit": "µg/mL"}, {"measurement": "MIC", "setting": "Staphylococcus aureus; SC1276, Staphylococcus aureus SC 1276", "value": "> 100", "unit": "µg/mL"}, {"measurement": "MIC", "setting": "Staphylococcus aureus; SC2399, Staphylococcus aureus SC 2399", "value": "> 100", "unit": "µg/mL"}, {"measurement": "MIC", "setting": "Proteus mirabilis", "value": "> 100", "unit": "µg/mL"}, {"measurement": "MIC", "setting": "Candida tropicalis", "value": 25, "unit": "µg/mL"}, {"measurement": "MIC", "setting": "[9]", "value": 0.8, "unit": "µg/mL"}, {"measurement": "MIC", "setting": "Micrococcus luteus", "value": "> 100", "unit": "µg/mL"}, {"measurement": "MIC", "setting": "Escherichia coli", "value": "> 100", "unit": "µg/mL"}, {"measurement": "MIC", "setting": "Aspergillus fumigatus [10]", "value": 100, "unit": "µg/mL"}, {"measurement": "MIC", "setting": "Pseudomonas aeruginosa", "value": "> 100", "unit": "µg/mL"}]}, {"smiles": "CCC/C=C/C=C/C=C(\\C)[C@H]1OC[C@@H](C)[C@@H](OC)[C@@H]1OC(=O)CN", "note": "(relative stereo) [Scopularin, (2α, 3β, 4α, 5α)-Tetrahydro-4-methoxy-5-methyl-2-(1-methyl-1,3,5-nonatrienyl)-2H-pyran-3-ol, aminoacetate ester]", "values": [{"measurement": "IC50", "setting": "lanosterol demethylase", "value": 36, "unit": "µM"}]}]}
